This note sets out measurements from BindingDB's records for doi:10.1021/jm701487t (F. Hoffmann-La Roche, 2008).

For this test, the target named is Cannabinoid receptor 2 (Homo sapiens, UniProt P34972).
Chain of Cannabinoid receptor 2 (P34972 whole entry): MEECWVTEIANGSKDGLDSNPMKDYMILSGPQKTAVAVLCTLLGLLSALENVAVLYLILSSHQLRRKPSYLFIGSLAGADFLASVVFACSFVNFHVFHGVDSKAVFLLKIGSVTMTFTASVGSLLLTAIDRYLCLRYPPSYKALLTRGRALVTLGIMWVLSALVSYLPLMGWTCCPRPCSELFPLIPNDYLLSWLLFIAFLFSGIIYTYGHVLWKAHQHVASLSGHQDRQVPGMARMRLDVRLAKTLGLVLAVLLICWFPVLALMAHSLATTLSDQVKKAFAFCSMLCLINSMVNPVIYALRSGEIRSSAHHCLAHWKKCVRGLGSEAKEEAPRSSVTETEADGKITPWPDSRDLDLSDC

In general, Ki refers to a measure of affinity in units of concentration, obtained from inhibition or displacement. A high value points to lower affinity. As for `O=C(c1cc2c(cc1F)OC(c1ccc(F)cc1)(c1ccc(Cl)cc1Cl)O2)N1CCOCC1` (stereo unspecified) [CAS_24828562], the affinity corresponds to a Ki of 3 nM.
